According to patent US20110201564A1, “SUBSTITUTED 7-SULFANYLMETHYL, 7-SULFINYLMETHYL AND 7-SULFONYLMETHYL INDOLES AND USE THEREOF” (BAYER SCHERING PHARMA AKTIENGESELLSCHAFT, priority 2008, published 2011):
Like-named read-outs stand apart in the source and are kept apart here.

What was measured:
CYP3A4 [1] = biological target: T1, CYP3A4 (Homo sapiens, UniProt P08684); assay: CYP inhibition assay with human liver microsomes; format: in vitro ADME
T1 construct: using human liver microsomes (pool from various individuals); from tissue; host or cells: human liver microsomes (pool from various individuals)
T1 sequence (P08684 whole entry): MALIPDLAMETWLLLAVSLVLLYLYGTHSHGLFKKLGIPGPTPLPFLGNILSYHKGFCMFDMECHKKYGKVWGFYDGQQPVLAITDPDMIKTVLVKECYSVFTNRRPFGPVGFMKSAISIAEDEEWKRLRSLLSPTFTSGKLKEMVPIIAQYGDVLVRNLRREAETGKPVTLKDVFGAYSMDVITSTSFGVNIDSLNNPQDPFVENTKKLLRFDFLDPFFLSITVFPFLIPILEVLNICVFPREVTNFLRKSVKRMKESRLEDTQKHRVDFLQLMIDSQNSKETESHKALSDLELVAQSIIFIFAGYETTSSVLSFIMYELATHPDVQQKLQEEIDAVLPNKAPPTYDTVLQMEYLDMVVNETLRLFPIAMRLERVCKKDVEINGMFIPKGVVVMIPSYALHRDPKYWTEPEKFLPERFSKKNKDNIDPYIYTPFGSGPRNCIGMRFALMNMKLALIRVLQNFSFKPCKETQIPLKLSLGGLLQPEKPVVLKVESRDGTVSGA
Text: Inhibitory properties of an active ingredient on the cytochromes P450 (CYP) of the human body may entail extensive clinical effects (drug interactions) because most of the prescribed medicaments are degraded (metabolized) by these enzymes. The ones involved in this are in particular the CYP isoenzymes of the 1A and 2C families, CYP2D6 and, with a proportion of almost 50%, CYP3A4. In order to preclude or minimize these possible drug interactions (Drug-Drug Interactions, DDI), the ability of substances to be able to inhibit CYP1A2, CYP2C8, CYP2C9, CYP2D6 and CYP3A4 in humans is investigated using human liver microsomes (pool from various individuals). This takes place by measuring CYP isoform-specific metabolites formed from standard substrates such as, for example, phenacetin, amodiaquin, diclofenac, dextromethorphan, midazolam and testosterone. The inhibitory effects are investigated at six different concentrations of the test compounds (1.5, 3.1, 6.3, 12.5, 25 and 50 μM as maximum concentration or 0.6, 1.3, 2.5, 5, 10 and 20 μM as maximum concentration), comparing with the extent of the CYP isoform-specific metabolite formation of the standard substrates in the absence of the test compounds, and calculating the corresponding IC50 values. CYP isoform-specific standard inhibitors such as, for example, fluvoxamine, quercetin, sulfaphenazole, fluoxetine and ketoconazole serve as control of the results obtained. In order to obtain indications of the possible mechanism-based inhibitors (MBI) on CYP3A4, the human liver microsomes are incubated in the presence of the inhibitor to be investigated for 30 minutes before the addition of midazolam or testosterone as standard substrates of CYP3A4. A reduction in the IC50 obtained by comparison with the mixture without preincubation serves as an indicator of a mechanism-based inhibition. Mibefradil serves as positive control.
The incubations of the standard substrates with human liver microsomes (23-233 μg/mL) in the presence of the test compound (as potential inhibitor) are carried out in 96-well plates in a workstation (Tecan, Genesis, Crailsheim, Germany) at 37° C. The incubation times are 15-20 minutes. The test compounds are preferably dissolved in acetonitrile (1.0 or 2.5 mM stock solution). The 96-well plates are produced by sequential addition of a stock solution of NADP+, EDTA, glucose 6-phosphate and glucose-6-phosphate dehydrogenase in phosphate buffer (pH 7.4), the test compound, and a solution of standard substrate and human liver microsomes in phosphate buffer (pH 7.4). The total volume is 200 μl. The corresponding control incubations with and without standard inhibitor also take place on the 96-well plate. The incubations are stopped after the respective incubation time by adding 100 μl of acetonitrile in which there is a suitable internal standard. Precipitated proteins are removed by centrifugation (3000 rpm, 10 minutes, 10° C.). The resulting supernatants of the respective plates are combined on one plate and analyzed by LC-MS/MS. The […] values are generated from the resulting measured data and used to assess the inhibitory potential of the test compound.

CYP3A4 [2] = biological target: T1, CYP3A4; assay: Assay to assess irreversible CYP3A4 inhibition (mechanism-based inhibition) in human liver microsomes; format: in vitro ADME; conditions: CYP3A4 activity as 6β-hydroxytestosterone formation, 2-20 μM
Text: 8. Assay to Assess Irreversible CYP3A4 Inhibition
Cytochrom P450 enzyme inhibition, especially irreversible enzyme inhibition, also referred to as mechanism-based inhibition (MBI), is an unwanted metabolic property of a substance which may, on concurrent administration of other medicaments, lead to considerable drug interactions. Criteria for the presence of an irreversible inhibition are a time-, concentration- and cofactor- (nicotinamide adenine dinucleotide phosphate, NADPH) dependent inhibition. To this end, the compounds of the invention are incubated in vitro with human liver microsomes, the influence on the CYP3A4 activity and the metabolic degradation of the novel active ingredient is determined, and the prototypical parameters kinact, Ki and the partition ratio r are ascertained therefrom.
The compounds of the invention are incubated with concentrations of 2-20 μM. To this end, stock solutions of the active ingredients with a concentration of 0.2-2 mM are prepared in acetonitrile and then pipetted with a 1:100 dilution into the incubation mixture. The liver microsomes are incubated in 50 mM potassium phosphate buffer (pH 7.4) with and without NADPH-generating system consisting of 1 mM NADP^+, 5 mM glucose 6-phosphate and 1 unit of glucose 6-phosphate dehydrogenase, at 37° C. After defined preincubation times of 0-50 min, aliquots are removed from these mixtures, diluted 1:25 in a new incubation, and incubated in the presence of testosterone and new NADPH-generating system again for 20 min. These incubation mixtures are stopped with acetonitrile (final concentration about 30% v/v), and the protein is removed by centrifugation at about 15 000×g. The samples stopped in this way are either analyzed directly or stored at −20° C. until analyzed.
The analysis takes place by high performance liquid chromatography with mass spectrometry detection (LC-MS). The formation of 6β-hydroxytestosterone as measure of CYP3A4 activity, and the test substance still remaining is quantified. The parameters kinact, Ki and the partition ratio r are determined therefrom so as to assess the novel active ingredients in relation to MBI.

androgen receptor (AR) = biological target: T2, androgen receptor (AR) (Homo sapiens, UniProt P10275); assay: Cellular in vitro assay, GAL4-AR chimera luciferase reporter in CHO K1 cells (selectivity); format: cell-based; conditions: antagonism vs dihydrotestosterone; CHO K1 GAL4-AR LBD luciferase reporter
T2 construct: of the androgen receptor (AR, amino acids 667-919); expressed in transfected cells; host or cells: CHO K1
T2 sequence (P10275 668-920): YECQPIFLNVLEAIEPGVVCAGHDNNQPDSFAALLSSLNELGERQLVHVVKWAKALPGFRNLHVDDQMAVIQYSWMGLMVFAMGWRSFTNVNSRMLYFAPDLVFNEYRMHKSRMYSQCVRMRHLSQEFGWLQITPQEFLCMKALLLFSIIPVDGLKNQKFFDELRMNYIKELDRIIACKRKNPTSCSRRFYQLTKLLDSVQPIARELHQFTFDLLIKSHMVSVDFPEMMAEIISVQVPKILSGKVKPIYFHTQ
Outline: (§1)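 CHO K1 cells stably expressing GAL4 DNA-binding domain fused to human MR, PR or AR ligand-binding domains plus GAL4-driven firefly luciferase; compounds added 10–30 min before agonist (aldosterone, progesterone or dihydrotestosterone), luciferase read after 5–6 h; IC50 from sigmoidal concentration–response curves.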

[3] = biological target: T3, progesterone receptor (PR) (Homo sapiens, UniProt P06401); assay: Cellular in vitro assay, GAL4-PR chimera luciferase reporter in CHO K1 cells (selectivity); format: cell-based; conditions: antagonism vs progesterone; CHO K1 GAL4-PR LBD luciferase reporter
T3 construct: of the progesterone receptor (PR, amino acids 680-933); expressed in transfected cells; host or cells: CHO K1
T3 sequence (P06401 680-933): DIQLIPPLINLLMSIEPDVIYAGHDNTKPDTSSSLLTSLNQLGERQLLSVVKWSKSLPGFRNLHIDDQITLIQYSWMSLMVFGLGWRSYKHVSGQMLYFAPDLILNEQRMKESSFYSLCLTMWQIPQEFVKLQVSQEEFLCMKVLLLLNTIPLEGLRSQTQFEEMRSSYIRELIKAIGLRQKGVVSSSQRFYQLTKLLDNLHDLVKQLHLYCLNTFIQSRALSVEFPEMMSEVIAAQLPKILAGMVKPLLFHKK
Outline: as §1

[4] = biological target: T4, human mineralocorticoid receptor (MR) (Homo sapiens, UniProt P08235); assay: Cellular in vitro assay, GAL4-MR chimera luciferase reporter in CHO K1 cells (inhibitory MR activity); format: cell-based; conditions: antagonism vs aldosterone; CHO K1 GAL4-MR LBD luciferase reporter
T4 construct: expressed in transfected cells; host or cells: CHO K1
T4 sequence (P08235 734-984 limits assumed): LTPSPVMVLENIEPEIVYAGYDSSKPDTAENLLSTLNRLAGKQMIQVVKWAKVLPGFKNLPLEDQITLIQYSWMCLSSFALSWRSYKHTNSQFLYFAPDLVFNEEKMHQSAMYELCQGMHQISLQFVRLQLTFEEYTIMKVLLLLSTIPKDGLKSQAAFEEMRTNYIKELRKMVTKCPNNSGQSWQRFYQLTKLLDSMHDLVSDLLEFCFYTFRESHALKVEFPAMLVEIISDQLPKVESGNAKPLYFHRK
Outline: as §1

IC50 (CYP3A4 [1]; 30 min preincubation with test compound before substrate, read-out: CYP 3A4 Preincubation, 30 min.) [µM] | IC50 (CYP3A4 [1]; without preincubation, read-out: CYP 3A4 Coincubation) [µM] | Partition ratio r (CYP3A4 [2]) | IC50 (androgen receptor (AR)) [µM] | IC50 [3] [µM] | IC50 [4] [µM] | SMILES
11.2 | > 20 | 250 |  |  |  | CS(=O)(=O)Cc1cccc2c(C(c3ccc(F)cc3)c3ccc(Cl)cc3F)c[nH]c12 (single isomer, unassigned) [Example 118-1, 3-[(4-Chloro-2-fluorophenyl)(4-fluorophenyl)methyl]-7-[(methylsulfonyl)methyl]-1H-indole]
 |  | >200 | 1.29 | 3 | 0.007 | CS(=O)(=O)Cc1cc(F)cc2c(C(c3ccc(F)cc3Cl)C3CC3C#N)c[nH]c12 (single isomer, unassigned) [Example 266-1, 2-[(2-Chloro-4-fluorophenyl){5-fluoro-7-[(methylsulfonyl)methyl]-1H-indol-3-yl}methyl]cyclopropanecarbonitrile]
 |  | 100 | 5.67 | 4.07 | 0.09 | CS(=O)(=O)Cc1cccc2c(C(CCC#N)c3ccc(C(F)(F)F)cc3)c[nH]c12 (single isomer, unassigned) [Example 56-1, 4-{7-[(Methylsulfonyl)methyl]-1H-indol-3-yl}-4-[4-(trifluoromethyl)phenyl]butanonitrile]
 |  | >200 | 3.9 | 10 | 0.008 | CS(=O)(=O)Cc1cc(F)cc2c(C(c3ccc(Cl)cc3)C3CC3C#N)c[nH]c12 (single isomer, unassigned) [Example 277-1-1, 2-[(4-Chlorophenyl){5-fluoro-7-[(methylsulfonyl)methyl]-1H-indol-3-yl}methyl]cyclopropane-carbonitrile]
